Data: patent EP3262942A1, “SELENODIARYLS FOR USE AS MICROBICIDE OR AS MEDICINE” (Evonik Degussa GmbH, priority 2016, dated 2018)

Assays:
Candida albicans = experiment: Growth test in microtiter plates, HA medium, 24 h, visual evaluation; type: cell-based; design: key: +: kein Wachstum im Vergleich zur Wachstumskontrolle; -: Wachstum wie Wachstumskontrolle
Mucor miehei = experiment: as above; type: cell-based; design: key to Aktivität gegenüber M. miehei: +: kein Wachstum im Vergleich zur Wachstumskontrolle; -: Wachstum wie Wachstumskontrolle
Penicillium notatum = experiment: as above; type: cell-based; design: key: +: kein Wachstum im Vergleich zur Wachstumskontrolle; -: Wachstum wie Wachstumskontrolle
Paecilomyces variotii = experiment: as above; type: cell-based; design: key: +: kein Wachstum im Vergleich zur Wachstumskontrolle; -: Wachstum wie Wachstumskontrolle
M. grisea H2O = experiment: microbe, parasite or virus in culture; type: cell-based, Magnaporthe grisea; settings: Pyricularia grisea, H2O, 24 h, read-out: Aktivität gegenüber M. grisea H2O
Botrytis cinerea = experiment: microbe, parasite or virus in culture; type: cell-based; settings: Botrytis cinerea, 24 h, read-out: Aktivität gegenüber B. cinerea
P. infestans = experiment: microbe, parasite or virus in culture; type: cell-based, Phytophthora infestans; settings: for inhibition of growth at 5 µg/mL / inhibition of growth at 10 µg/mL / inhibition of growth at 25 µg/mL / inhibition of growth at 50 µg/mL: Phytophthora infestans, 24 h, read-out: Aktivität gegenüber P. infestans
M. grisea CM = experiment: microbe, parasite or virus in culture; type: cell-based, Magnaporthe grisea; settings: Pyricularia grisea, 24 h, read-out: Aktivität gegenüber M. grisea CM
Lepidium sativum = experiment: Crop plant growth test, seeds on filter discs, 4 days, visual evaluation; type: in vivo
Method in brief: (§1)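 Compounds dried from DMSO onto filter discs; about 12 seeds per well with 200 µl sterile tap water, incubated 4 days in a humid chamber under 16 h light/8 h dark. Visual scoring: + means at least 75 % growth inhibition versus control, − means less than 75 %.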

Setaria italica = experiment: as above; type: in vivo
Method in brief: as §1

M. grisea = type: cell-based, Magnaporthe grisea; settings: medium (H2O or CM) not stated
[1] = test system: alle getesteten Pathogene; type: cell-based; settings: 5-50 µg/mL

SMILES	Aktivität gegenüber C. albicans (Candida albicans; 10µg/mL)	Aktivität gegenüber C. albicans (Candida albicans; 50µg/mL)	Aktivität gegenüber M. miehei (Mucor miehei; 10µg/mL)	Aktivität gegenüber M. miehei (Mucor miehei; 50µg/mL)	Aktivität gegenüber P. notatum (Penicillium notatum; 10µg/mL)	Aktivität gegenüber P. notatum (Penicillium notatum; 50µg/mL)	Aktivität gegenüber P. variotii (Paecilomyces variotii; 10µg/mL)	Aktivität gegenüber P. variotii (Paecilomyces variotii; 50µg/mL)	inhibition of growth at 5 µg/mL (M. grisea H2O) [%]	inhibition of growth at 10 µg/mL (M. grisea H2O) [%]	inhibition of growth at 25 µg/mL (M. grisea H2O) [%]	inhibition of growth at 50 µg/mL (M. grisea H2O) [%]	inhibition of growth at 5 µg/mL (Botrytis cinerea) [%]	inhibition of growth at 10 µg/mL (Botrytis cinerea) [%]	inhibition of growth at 25 µg/mL (Botrytis cinerea) [%]	inhibition of growth at 50 µg/mL (Botrytis cinerea) [%]	inhibition of growth at 5 µg/mL (P. infestans) [%]	inhibition of growth at 10 µg/mL (P. infestans) [%]	inhibition of growth at 25 µg/mL (P. infestans) [%]	inhibition of growth at 50 µg/mL (P. infestans) [%]	other results
Cc1cc(C)c(O)c([Se]c2cc(C)cc(C)c2O)c1 [Verbindung 12, Bis(3,5-dimethyl-2-hydroxyphenyl)selen]	-	-	-	-	-	-	-	-	0 to 25	0 to 25	0 to 25	0 to 25	0 to 25	0 to 25	0 to 25	0 to 25	0 to 25	> 75	> 75	> 75	inhibition of growth at 5 µg/mL (M. grisea CM): > 75%; inhibition of growth at 10 µg/mL (M. grisea CM): > 75%; inhibition of growth at 25 µg/mL (M. grisea CM): > 75%; inhibition of growth at 50 µg/mL (M. grisea CM): > 75%; Aktivität gegenüber Nutzpflanzen: L. sativum (Lepidium sativum; 10µg/R): - (weniger als 75 % Wachstumshemmung im Vergleich zur Kontrolle); Aktivität gegenüber Nutzpflanzen: L. sativum (Lepidium sativum; 20µg/R): - (weniger als 75 % Wachstumshemmung im Vergleich zur Kontrolle); Aktivität gegenüber Nutzpflanzen: L. sativum (Lepidium sativum; 50µg/R): - (weniger als 75 % Wachstumshemmung im Vergleich zur Kontrolle); Aktivität gegenüber Nutzpflanzen: S. italica (Setaria italica; 10µg/R): - (weniger als 75 % Wachstumshemmung im Vergleich zur Kontrolle); Aktivität gegenüber Nutzpflanzen: S. italica (Setaria italica; 20µg/R): - (weniger als 75 % Wachstumshemmung im Vergleich zur Kontrolle); Aktivität gegenüber Nutzpflanzen: S. italica (Setaria italica; 50µg/R): - (weniger als 75 % Wachstumshemmung im Vergleich zur Kontrolle); Aktivität gegenüber M. grisea (M. grisea): hohe Aktivität
Cc1cc(C(C)(C)C)cc([Se]c2cc(C(C)(C)C)cc(C)c2O)c1O [Verbindung 13, Di(5-tert-butyl-2-hydroxy-3-methylphenyl)selen]	-	-	-	-	-	-	-	-	> 75	> 75	> 75	> 75	0 to 25	0 to 25	0 to 25	0 to 25	0 to 25	0 to 25	0 to 25	0 to 25	inhibition of growth at 5 µg/mL (M. grisea CM): > 75%; inhibition of growth at 10 µg/mL (M. grisea CM): > 75%; inhibition of growth at 25 µg/mL (M. grisea CM): > 75%; inhibition of growth at 50 µg/mL (M. grisea CM): > 75%; Aktivität gegenüber Nutzpflanzen: L. sativum (Lepidium sativum; 10µg/R): - (weniger als 75 % Wachstumshemmung im Vergleich zur Kontrolle); Aktivität gegenüber Nutzpflanzen: L. sativum (Lepidium sativum; 20µg/R): - (weniger als 75 % Wachstumshemmung im Vergleich zur Kontrolle); Aktivität gegenüber Nutzpflanzen: L. sativum (Lepidium sativum; 50µg/R): - (weniger als 75 % Wachstumshemmung im Vergleich zur Kontrolle); Aktivität gegenüber Nutzpflanzen: S. italica (Setaria italica; 10µg/R): - (weniger als 75 % Wachstumshemmung im Vergleich zur Kontrolle); Aktivität gegenüber Nutzpflanzen: S. italica (Setaria italica; 20µg/R): - (weniger als 75 % Wachstumshemmung im Vergleich zur Kontrolle); Aktivität gegenüber Nutzpflanzen: S. italica (Setaria italica; 50µg/R): - (weniger als 75 % Wachstumshemmung im Vergleich zur Kontrolle); Aktivität gegenüber M. grisea (M. grisea): hohe Aktivität
COc1cc(OC)c([Se]c2cc(OC)c(OC)cc2OC)cc1OC [Verbindung 26, Bis(2,4,5-trimethoxyphenyl)selen]	-	-	-	+	-	-	-	-	25 to 50	> 75	> 75	> 75	0 to 25	0 to 25	0 to 25	0 to 25	0 to 25	0 to 25	0 to 25	0 to 25	Aktivität im Wachstumstest mit M. miehei (Mucor miehei; […]): mikrobizide Wirksamkeit; Wirksamkeit gegenüber P. infestans (P. infestans; […]): keine Wirkung; inhibition of growth at 5 µg/mL (M. grisea CM): 25 to 50%; inhibition of growth at 10 µg/mL (M. grisea CM): > 75%; inhibition of growth at 25 µg/mL (M. grisea CM): > 75%; inhibition of growth at 50 µg/mL (M. grisea CM): > 75%; Aktivität gegenüber Nutzpflanzen: L. sativum (Lepidium sativum; 10µg/R): - (weniger als 75 % Wachstumshemmung im Vergleich zur Kontrolle); Aktivität gegenüber Nutzpflanzen: L. sativum (Lepidium sativum; 20µg/R): - (weniger als 75 % Wachstumshemmung im Vergleich zur Kontrolle); Aktivität gegenüber Nutzpflanzen: L. sativum (Lepidium sativum; 50µg/R): - (weniger als 75 % Wachstumshemmung im Vergleich zur Kontrolle); Aktivität gegenüber Nutzpflanzen: S. italica (Setaria italica; 10µg/R): - (weniger als 75 % Wachstumshemmung im Vergleich zur Kontrolle); Aktivität gegenüber Nutzpflanzen: S. italica (Setaria italica; 20µg/R): - (weniger als 75 % Wachstumshemmung im Vergleich zur Kontrolle); Aktivität gegenüber Nutzpflanzen: S. italica (Setaria italica; 50µg/R): - (weniger als 75 % Wachstumshemmung im Vergleich zur Kontrolle); Aktivität im Wachstums- und Keimungshemmungstest gegen die getesteten Pathogene [1]: fungizider Effekt
